biological target: IRAK4 (Homo sapiens (Human), UniProt Q9NWZ3); assay: IRAK4 Kinase Assay (IMAP fluorescence polarization); assay type: biochemical; conditions: 0.5 nM GST tagged IRAK4, 100 μM ATP, 30 minutes at 25° C.
Method: The kinase activity of IRAK4 is determined by its ability to catalyze the phosphorylation of a fluorescent polypeptide substrate. The extent of phosphorylation is measured using the IMAP technology (Molecular Devices) where the phosphorylated fluorescent substrate binds to the large M(III)-based nanoparticles which reduces the rotational speed of the substrate and thus increases its fluorescent polarization (FP).
20 μL reaction mixture contains 10 mM TriHCl, pH 7.2, 0.5 nM GST tagged IRAK4 (SignalChem), 100 nM fluorescent peptide substrate (RP7030, Molecular Devices), 100 μM ATP, 1 mM DDT, 1 mM MgCl2, and 0.01% Tween 20. The reaction is initiated by the addition of ATP. After incubation for 30 minutes at 25° C., 60 μL of Progressive IMAP Reagent (Molecular Devices) is added to stop the reaction. Change in RP7030's FP is determined by a FP reader (Analyst HT, LJL BioSystems).

Sequence of IRAK4 (Q9NWZ3 whole entry): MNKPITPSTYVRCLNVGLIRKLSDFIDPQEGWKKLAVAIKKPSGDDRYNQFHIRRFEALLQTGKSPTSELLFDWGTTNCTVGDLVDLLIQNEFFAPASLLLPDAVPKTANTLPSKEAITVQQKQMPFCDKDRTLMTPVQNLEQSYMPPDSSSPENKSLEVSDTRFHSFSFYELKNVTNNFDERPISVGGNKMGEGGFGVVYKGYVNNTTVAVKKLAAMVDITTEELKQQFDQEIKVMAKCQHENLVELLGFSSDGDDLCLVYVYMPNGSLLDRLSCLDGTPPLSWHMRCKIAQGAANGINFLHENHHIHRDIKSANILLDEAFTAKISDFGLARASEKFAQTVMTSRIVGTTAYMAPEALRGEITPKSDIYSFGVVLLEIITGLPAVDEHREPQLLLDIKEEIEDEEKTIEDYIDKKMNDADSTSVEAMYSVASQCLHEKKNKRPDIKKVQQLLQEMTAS

Row | Compound | IC50 [nM]
1 | Cc1c(C2CC2)ccc2ncnc(N[C@H]3CC[C@H](N4CCOCC4)CC3)c12 [Example 1-1, 6-Cyclopropyl-5-methyl-N-(trans-4-morpholinocyclohexyl)quinazolin-4-amine] | 345
2 | CN(C)C1CCC(Nc2ncnc3ccc(C4CC4)cc23)CC1 (stereo not shown) [Example 1-2, N′-(6-cyclopropylquinazolin-4-yl)-N,N-dimethylcyclohexane-1,4-diamine] | 12
3 | c1nc(N[C@H]2CC[C@H](N3CCOCC3)CC2)c2cc(C3CC3)ccc2n1 [Example 1-3, 6-cyclopropyl-N-(trans-4-morpholin-4-ylcyclohexyl)quinazolin-4-amine] | 5
4 | Fc1cc2ncnc(N[C@H]3CC[C@H](N4CCOCC4)CC3)c2cc1C1CC1 [Example 1-4, 6-cyclopropyl-7-fluoro-N-(trans-4-morpholin-4-ylcyclohexyl)quinazolin-4-amine] | 12
5 | CC1(c2ccc3ncnc(N[C@H]4CC[C@H](N5CCOCC5)CC4)c3c2)CC1 [Example 1-5, 6-(1-methylcyclopropyl)-N-(trans-4-morpholin-4-ylcyclohexyl)quinazolin-4-amine] | 52
6 | c1nc(N[C@H]2CC[C@H](N3CCOCC3)CC2)c2cc(C3CCC3)ccc2n1 [Example 1-6, 6-cyclobutyl-N-(trans-4-morpholin-4-ylcyclohexyl)quinazolin-4-amine] | 3
7 | c1nc(N[C@H]2CC[C@H](N3CCOCC3)CC2)c2cc(C3CCCC3)ccc2n1 [Example 1-7, 6-cyclopentyl-N-(trans-4-morpholin-4-ylcyclohexyl)quinazolin-4-amine] | 5
8 | c1nc(N[C@H]2CC[C@H](N3CCOCC3)CC2)c2cc(C3CCCCC3)ccc2n1 [Example 1-8, 6-cyclohexyl-N-(trans-4-morpholin-4-ylcyclohexyl)quinazolin-4-amine] | 19

The remaining lines, values ahead:

Row | IC50 [nM] | Compound
9 | 39 | OC1CCCC(c2ccc3ncnc(N[C@H]4CC[C@H](N5CCOCC5)CC4)c3c2)C1 (single isomer, unassigned) [Example 4-1, 3-(4-(((trans)-4-Morpholinocyclohexyl)amino)quinazolin-6-yl)cyclohexanol]
10 | 11 | OC1CCCC(c2ccc3ncnc(N[C@H]4CC[C@H](N5CCOCC5)CC4)c3c2)C1 (single isomer, unassigned) [Example 4-3, 3-(4-(((trans)-4-Morpholinocyclohexyl)amino)quinazolin-6-yl)cyclohexanol]
11 | 32 | c1nc(N[C@H]2CC[C@H](N3CCOCC3)CC2)c2cc(C3COC3)ccc2n1 [Example 2-1, N-((trans)-4-morpholinocyclohexyl)-6-(oxetan-3-yl)quinazolin-4-amine]
12 | 18 | c1nc(N[C@H]2CC[C@H](N3CCOCC3)CC2)c2cc(C3CCOC3)ccc2n1 (stereo partly drawn) [Example 2-2, N-(trans-4-morpholin-4-ylcyclohexyl)-6-(tetrahydrofuran-3-yl)quinazolin-4-amine]
13 | 170 | c1nc(N[C@H]2CC[C@H](N3CCOCC3)CC2)c2cc(C3CCCO3)ccc2n1 (stereo partly drawn) [Example 3-1, N-((trans)-4-morpholinocyclohexyl)-6-(tetrahydrofuran-2-yl)quinazolin-4-amine]
14 | 169 | N#CC1CCC(c2ccc3ncnc(N[C@H]4CC[C@H](N5CCOCC5)CC4)c3c2)CC1 (stereo partly drawn) [Example 3-2, 4-{4-[(trans-4-morpholin-4-ylcyclohexyl)amino]quinazolin-6-yl}cyclohexanecarbonitrile]
15 | 71 | FC1(F)CCC(c2ccc3ncnc(N[C@H]4CC[C@H](N5CCOCC5)CC4)c3c2)CC1 [Example 3-3, 6-(4,4-difluorocyclohexyl)-N-(trans-4-morpholin-4-ylcyclohexyl)quinazolin-4-amine]
16 | 91 | c1nc(N[C@H]2CC[C@H](N3CCOCC3)CC2)c2cc(C3CCOCC3)ccc2n1 [Example 3-4, N-(trans-4-morpholin-4-ylcyclohexyl)-6-(tetrahydro-2H-pyran-4-yl)quinazolin-4-amine]
17 | 13 | c1nc(N[C@H]2CC[C@H](N3CCOCC3)CC2)c2cc(C3CCCOC3)ccc2n1 (stereo partly drawn) [Example 3-5, N-(trans-4-morpholin-4-ylcyclohexyl)-6-(tetrahydro-2H-pyran-3-yl)quinazolin-4-amine]
18 | 98 | O=C(O)C1CCC(c2ccc3ncnc(N[C@H]4CC[C@H](N5CCOCC5)CC4)c3c2)CC1 (stereo partly drawn) [Example 3-6, 4-{4-[(trans-4-morpholin-4-ylcyclohexyl)amino]quinazolin-6-yl}cyclohexanecarboxylic acid]
19 | 55 | OC1CCCC(c2ccc3ncnc(N[C@H]4CC[C@H](N5CCOCC5)CC4)c3c2)C1 (stereo partly drawn) [Example 4-2, 3-(4-(((trans)-4-Morpholinocyclohexyl)amino)quinazolin-6-yl)cyclohexanol]

— patent US9943516B2, “Inhibitors of IRAK4 activity” (MERCK SHARP & DOHME CORP., priority 2014, dated 2018)
